Reference: patent US10888541B2, “Method and compositions for treatment and prevention of broad spectrum virus ailments comprising a calcium channel blocker or a calmodulin blocker” (DR. KENNETH ADAMS MEDICINE PROFESSIONAL CORPORATION, priority 2009, dated 2021)

How the values were obtained:
[1] = Case report: Rheumatoid Arthritis of the hands, topical ointment; conditions: for pain in hand: person, within hours of applying; for mobility of joints: sustained applications over several days
Genital Herpes = test: Case report: recurrent Genital Herpes; format: in vivo, human
Text: Patient with a long history of recurrent Genital Herpes was using Diltiazem.

cold sores = test: Case reports: recurrent cold sores, topical application; format: in vivo, human; conditions: Patient A, 100 mg/ml topically
[2] = system: viral upper respiratory infection; test: Case report: viral upper respiratory infection, intranasal/throat spray
Text: person with symptoms of viral upper respiratory infection started experiencing nasal congestion and nasal discharge.

[3] = Case report: fever, chills, muscle aches, nausea and diarrhea; format: in vivo, human; conditions: person; 120 mg tablets every 8 hours; within one hour of first tablet
Text: A person with a three day history of fever, chills, muscle aches and nausea. On the second and third days the patient developed increasing diarrhea. On the morning of the third day the patient was experiencing loose, watery stools with a cramps and lower abdominal pain.

HIV = test: Case report: HIV patient, T4 helper counts; format: in vivo, human; conditions: 240 mg (120 mg of verapamilSR) twice daily for 2 weeks
[4] = Case report: latex glove allergy (delayed hypersensitivity reaction); format: in vivo, human
Text: A person surgeon with a latex glove allergy. Symptoms of a red eczematous rash develops when they use latex gloves.

Herpes Zoster infection = test: Case report: Herpes Zoster infection; format: in vivo, human; conditions: elderly patient; 120 mg SR twice daily
Text: Elderly patient with Herpes Zoster infection on the upper left abdomen.

Structure (SMILES)	pain in hand [1]	mobility of joints [1]	frequency of genital herpes recurrences (Genital Herpes; after starting treatment, before: several episodes per year)	size and healing of genital herpes episodes (Genital Herpes; when on treatment)	cold sore infection when applied in the initial tingling phase (cold sores)	severity and size of cold sore when application delayed until eruption visible (cold sores)	time to complete healing clearance (cold sores; application delayed until eruption visible, usual 7 days) [days]	time until nasal discharge stopped ([2]; 0.2 ml of 2 mg/ml sprayed into each nostril and back of throat)	upper respiratory symptoms ([2]; next day, after repeated 0.1 ml applications intranasally and to throat)	nasal congestion and nasal discharge ([2]; person, 0.2 ml of 2 mg/ml sprayed into each nostril and back of throat, within minutes)	abdominal cramping, stools and diarrhea [3]	T4 helper counts (HIV)	chronic rash from daily exposure to latex ([4]; 200 mg/ml ointment)	delayed hypersensitivity reaction to latex gloves ([4]; 200 mg/ml ointment applied prior to wearing latex gloves)	pain, rash and healing of lesions (Herpes Zoster infection)
COc1ccc([C@@H]2Sc3ccccc3N(CCN(C)C)C(=O)[C@@H]2OC(C)=O)cc1 [Diltiazem, diltiazem]	significant reduction of pain in their hand	improved mobility of joints	1-2 episodes per year	much smaller and seemed to heal much quicker	the infection could be prevented	minimize the severity, reduce the size	2 to 4	–	–	–	–	–	–	–	–
COc1ccc(CCN(C)CCCC(C#N)(c2ccc(OC)c(OC)c2)C(C)C)cc1OC (centres unmarked) [Verapamil, verapamil]	significant reduction of pain in their hand	improved mobility of joints	–	–	–	–	–	approximately 20 minutes	cleared	reduction in nasal congestion and decreased nasal discharge	abdominal cramping began subsiding and their stools began to become more formed and diarrhea improved	significant rise in T4 helper counts	improved within hours	prevented	reduced pain, reduced rash and rapid healing of lesions
